From patent US20240390404A1, “ANTI-HUMAN NOROVIRUS AGENT” (KEIO UNIVERSITY, priority 2018, published 2024)
Entries after “also recorded” stand apart in the source; their conditions may differ.

Experiments:
VLP of norovirus GII. 4 = assay: Binding of AF488-labeled VLPs of norovirus GII.4 to the surface of 2fp-fucose-treated 2D organoid; type: cell-based, human norovirus; conditions: 2fp-fucose 0, 8, 40, 200, 1,000 μM, 4 treatment days
Procedure: In the Example, a nucleotide sequence (AB447456) encoding a structural protein domain of norovirus GII. 4 was incorporated into a baculovirus, and the sequence was expressed in insect cells (SF9 cells). The expression product was used in the Example.
Separately, VLPs of norovirus GII. 4 were labeled with AF488 (Alexa Fluor 488; green phosphor) and purified. The thus-prepared labeled VLPs were added to the 2fp-fucose-treated 2D organoid, and a state of binding of VLPs to the surface of the 2fp-fucose-treated 2D organoid was observed. Similar to the case of UEA-1, the 2fp-fucose concentration in the treatment was 0, 8, 40, 200, and 1,00 0 μM (for 4 treatment days). […] When the 2fp-fucose concentration exceeded 40 μM, definite reduction in VLP adsorption on the surface of 2D organoid was observed (FIG. 3(b)). FIG. 3(b) includes monochrome photographic images.

[1] = test system: 2D organoid derived from intestinal stem cells; assay: Cytotoxicity of 2fp-fucose to 2D organoid (Trypan blue staining); type: cell-based; conditions: 2fp-fucose 3.0 to 1,000 μM, 7 continuous days, versus no treatment (0 μM)
Source text: The 2D organoid derived from intestinal stem cells refers to a 2D organoid for infection and culture of human diarrhea virus (including norovirus) disclosed in Patent Document 2. According to Patent Document 2, the 2D organoid is “obtained by Step 1 in which human intestinal epithelial stem cells, human intestinal epithelial cells, or a tissue including at least one of these cells is subjected to 3-dimensional culturing on the extracellular matrix, to thereby obtain a 3D organoid; and by Step 2 in which the above-obtained 3D organoid is dispersed to prepare single cells; the single cells are subjected to monolayer culturing on an extracellular matrix; and there is obtained a 2D organoid having a single-layer structure of the epithelial cells for forming the human intestinal cavity which include differentiated trophoblastic cells and caliciform cells.” By virtue of the 2D organoid, culturing human norovirus, which was not previously achieved, can be successfully performed.
The aforementioned 3D organoid is degraded by use of, for example, TrypLE™ Express (product of Thermo Fisher SCIENTIFIC), to thereby yield single cells. […]
The 2D organoid was treated with 2fp-fucose (3.0 to 1,000 μM) for 7 continuous days. In each case, the number of dead cells was determined through Trypan blue staining. […]

[2] = test system: fucose-modified proteins including HBGA on the surface of 2D organoid; assay: HBGA / fucose-modified protein expression on the surface of 2D organoid (binding of FITC-labeled UEA-1); type: cell-based, human; conditions: 2fp-fucose 0, 8, 40, 200, 1,000 μM, 4 continuous days
Procedure: The 2D organoid was subjected to a 2fp-fucose treatment (0, 8, 40, 200, and 1,000 μM) for 4 continuous days. Reduction of fucose-modified proteins including HBGA formed on the cell surfaces was investigated by checking binding of FITC (phosphor)-labeled UEA-1 (ulex europaeus agglutinin-1).

[3] = test system: human norovirus GII. 6 (K2017 strain); assay: Human norovirus proliferation inhibition in 2D organoid after 2fp-fucose treatment, GII.6 strain; type: cell-based; conditions: 3 days treatment before infection, days 3 and 6 after infection
Procedure: (§1) Feces of a human norovirus-infected patent contains a large amount of infectious human norovirus. Thus, the feces of a human norovirus-infected patient is suspended in distilled water or the like to a final concentration of about 10%, to thereby prepare a “10% feces suspension.” The 10% feces suspension is about 10-fold diluted with an ENRA medium. The diluted suspension is added to each of the aforementioned wells having the 2D organoid (5 μL/well) and subjected to incubation for about 3 hours, to thereby proliferate human norovirus. As a result of verification, it has been confirmed that human norovirus proliferates to about 100,000 times the initial count through the culture system employing the 2D organoid.
In the Example, there were tested strains of human norovirus obtained from feces of human norovirus infection patients through the aforementioned procedure and stocked before the test. Specifically, three strains belonging to the genetic group 2 (GII) which accounts for 80 to 90% of the infected patients were selected as test targets. The isolated strain lineages included in GII (FIG. 1) were GII. 6 belonging to “Lineage 1,” GII. […]
The effect of 2fp-fucose treatment on proliferation of human norovirus was investigated for each lineage of norovirus. […] 4, and the viral proliferation amount was determined on days 3 and 6 after infection (FIG. 4).

[4] = test system: human norovirus GII.4 (K2017 strain); assay: Human norovirus proliferation inhibition in 2D organoid after agent pre-treatment, GII.4 strain; type: cell-based
Procedure: as §1
In the Example, there were tested strains of human norovirus obtained from feces of human norovirus infection patients through the aforementioned procedure and stocked before the test. Specifically, three strains belonging to the genetic group 2 (GII) which accounts for 80 to 90% of the infected patients were selected as test targets. The isolated strain lineages included in GII (FIG. 1) were GII. 6 belonging to “Lineage 1,” GII. 3 belonging to “Lineage 2,” and GII.4 belonging to “Lineage 3” (GII. 6: K2017 strain, GII.3: TCH2004 strain, and GII. 4: K2017 strain).
The effect of 2fp-fucose treatment on proliferation of human norovirus was investigated for each lineage of norovirus. Specifically, after the 2fp-fucose treatment for 3 days, the 2D organoid was infected with each of the aforementioned norovirus strains GII.6, GII. 3, and GII. 4, and the viral proliferation amount was determined on days 3 and 6 after infection (FIG. 4).
Next, there was investigated the effect of the period of time (the number of days) of the 2fp-fucose treatment performed in advance on the anti-human norovirus action of the fucose analog. Specifically, the strain GII. 4 was treated with 2fp-fucose (several concentrations) for 1 to 4 days. […] However, in the group of 3-day treatment, the proliferation inhibition effect was observed by the 200 μM treatment with a certain range of variation in effectiveness. In the group of 4-day treatment, the proliferation inhibition effect was initially observed by 8 μM treatment, and the effect increased in a concentration-dependent manner to a 2fp-fucose concentration of 200 μM. […] Thus, the highest proliferation inhibition effect was obtained in the 2D organoid system through a 200 μM treatment for 3 to 4 days. The test was repeatedly performed three times. Error bars denote SEMs.
The 2D organoid was treated with an agent for 3 days. The tested agents were (a) 2fp-fucose (200 μM), (b) Sofosbuvir (1 μM), (c) Lamivudine (1 μM), (d) Ribavirin (400 μM), and (e) Mizoribine (100 μM). Subsequently, the thus-treated 2D organoid was infected with human norovirus (the norovirus strain GII.4), and the proliferation inhibition effect was determined (FIG. 6). The test was repeatedly performed three times. Error bars denote SEMs.

[5] = GII.4, groups of 1-day treatment and 2-day treatment with 2fp-fucose

Structure (SMILES): CC(=O)OC1O[C@@H](C)[C@@H](OC(C)=O)[C@@H](OC(C)=O)[C@@H]1F (stereo partly drawn) [2fp-fucose, (3S,4R,5R,6S)-3-fluoro-6-methyltetrahydro-2H-pyran-2,4,5-triyl triacetate]
- VLP binding amount on the surface of 2D organoid (VLP of norovirus GII. 4): decrease in a concentration-dependent manner
- cell viability (number of dead cells, Trypan blue staining) [1]: no significant difference was observed in cell viability; also recorded: no effect on cell viability was confirmed
- amount of α-link fucose including HBGA on the surface of the 2D organoid (UEA-1 binding) [2]: decrease in a concentration-dependent manner
- concentration of complete viral proliferation inhibition [3]: ≥ 200 µM
- concentration of slight viral proliferation inhibition ([4]; GII.4 strain, 3 days treatment before infection): 40 µM
- concentration of complete viral proliferation inhibition ([4]; GII.4 strain, 3 days treatment before infection, days 3 and 6 after infection): ≥ 200 µM
- proliferation of human norovirus ([4]; GII.4, 4-day treatment, 1,000 μM): slight proliferation of human norovirus was observed
- viral RNA titer from day 0 to day 7 (proliferation inhibition effect) ([4]; GII.4, agent 200 μM, 3 days treatment before infection): no substantial increase in viral RNA titer was observed
- concentration at which the proliferation inhibition effect was observed ([4]; GII.4, group of 3-day treatment, certain range of variation in effectiveness): 200 µM
- concentration at which the proliferation inhibition effect was initially observed ([4]; GII.4, group of 4-day treatment): 8 µM
- proliferation inhibition effect [4, 5]: no proliferation inhibition effect
- proliferation of human norovirus 3 days after inoculation [4, 5]: ≥ 100 fold
- concentration giving the highest proliferation inhibition effect ([4]; GII.4, treatment for 3 to 4 days): 200 µM
